Laboratory results from patent publication US7429579B2, “Tetrahydrobenzazepine derivatives useful as modulators of dopamine D3 receptors (antipsychotic agents)” (SmithKline Beecham, PLC, priority 2000, dated 2008).
Counter-ions that a name gives are not always drawn.

biological target: T1, dopamine D3 receptor (Homo sapiens, UniProt P35462); test: Binding experiments on cloned dopamine receptors: displacement of [125I]-Iodosulpride; conditions: cloned human D3 receptor expressed in CHO cells, [125I]-Iodosulpride displacement; pKi accurate to about ±0.2-0.3
T1 construct: expressed in transfected cells; host or cells: CHO cells (crude cell membranes)
Description: Binding Experiments on Cloned Dopamine (e.g. D2, D3 and D4) Receptors
Cultures were grown as monolayers or in suspension in standard cell culture media. Cells were recovered by scraping (from monolayers) or by centrifugation (from suspension cultures), and were washed two or three times by suspension in phosphate buffered saline followed by collection by centrifugation. Cell pellets were stored frozen at −80° C. Crude cell membranes were prepared by homogenisation followed by high-speed centrifugation, and characterisation of cloned receptors achieved by radioligand binding.
Preparation of Cho Cell Membranes: Cell Pellets were Gently Thawed at Room temperature, and resuspended in about 20 volumes of ice-cold Extraction buffer; 5 mM EDTA, 50 mM Trizma pre-set crystals (pH7.4@37° C.), 1 mM MgCl2, 5 mM KCl and 120 mM NaCl. The suspension was homogenised using an Ultra-Turrax at full speed for 15 seconds. The homogenate was centrifuged at 18,000 r.p.m for 15 min at 4° C. in a Sorvall RC5C centrifuge. Supernatant was discarded, and homogenate re-suspended in extraction buffer then centrifugation was repeated. The final pellet was resuspended in 50 mM Trizma pre-set crystals (pH 7.4 @ 37° C.) and stored in 1 ml aliquot tubes at −80° C. (D2=3.0E+08 cells, D3=7.0E+07 cells and D4=1.0E+08 cells).
The total volume is 0.2 ml and incubated in a water bath at 37° C. for 40 minutes. Following incubation, samples were filtered onto GF/B Unifilters using a Can berra Packard Filtermate, and washed four times with ice-cold 50 mM Trizma pre-set crystals (pH 7.4 @ 37° C.). The radioactivity on the filters was measured using a Canberra Packard Topcount Scintillation counter. […] For competition curves, 10 serial log concentrations of competing cold drug were used (Dilution range: 10 μM-10 pM). Competition curves were analysed using Inflexion, an iterative curve fitting programme in Excel. Results were expressed as pKi values where pKi=−log 10 [Ki].

T1 sequence (P35462 whole entry): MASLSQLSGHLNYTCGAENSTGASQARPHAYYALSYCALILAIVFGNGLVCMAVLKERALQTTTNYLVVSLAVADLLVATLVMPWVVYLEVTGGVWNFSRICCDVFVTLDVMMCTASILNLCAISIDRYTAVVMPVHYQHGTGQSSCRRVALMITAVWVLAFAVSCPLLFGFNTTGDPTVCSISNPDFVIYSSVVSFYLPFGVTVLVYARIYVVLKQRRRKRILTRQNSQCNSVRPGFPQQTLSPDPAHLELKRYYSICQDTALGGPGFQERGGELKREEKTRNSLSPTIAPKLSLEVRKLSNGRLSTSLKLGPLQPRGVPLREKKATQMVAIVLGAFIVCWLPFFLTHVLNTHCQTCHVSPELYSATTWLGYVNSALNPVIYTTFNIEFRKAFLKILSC

Compound	Ki
Cn1c(SCCCN2CCc3ccc(OS(C)(=O)=O)cc3CC2)nnc1-c1ccccc1 [Example 1, 3-{3-[(4-methyl-5-phenyl-4H-1,2,4-triazol-3-yl)thio]propyl}-2,3,4,5-tetrahydro-1H-3-benzazepin-7-yl methanesulfonate]	0.316 to 10 nM
CS(=O)(=O)c1ccc2c(c1)CCN(CCCSc1nc(-c3ccccc3)c(-c3ccccc3)[nH]1)CC2 [Example 5, 3-{3-[(4,5-diphenyl-1H-imidazol-2-yl)thio]propyl}-7-(methylsulfonyl)-2,3,4,5-tetrahydro-1H-3-benzazepine]	0.316 to 10 nM
Cn1c(SCCCN2CCc3ccc(OS(C)(=O)=O)cc3CC2)nnc1-c1cccs1 [Example 8, 3-(3-{[4-methyl-5-(2-thienyl)-4H-1,2,4-triazol-3-yl]thio}propyl)-2,3,4,5-tetrahydro-1H-3-benzazepin-7-yl methanesulfonate]	0.316 to 10 nM
Cn1c(SCCCN2CCc3ccc(OS(C)(=O)=O)cc3CC2)nnc1-c1ccc2ncccc2c1 [Example 13, 3-(3-{[4-methyl-5-(6-quinolinyl)-4H-1,2,4-triazol-3-yl]thio}propyl)-2,3,4,5-tetrahydro-1H-3-benzazepin-7-yl methanesulfonate]	0.316 to 10 nM
Cn1c(SCCCN2CCc3ccc(OS(C)(=O)=O)cc3CC2)nnc1-c1ccc(F)cc1 [Example 14, 3-(3-{[5-(4-fluorophenyl)-4-methyl-4H-1,2,4-triazol-3-yl]thio}propyl)-2,3,4,5-tetrahydro-1H-3-benzazepin-7-yl methanesulfonate]	0.316 to 10 nM
CS(=O)(=O)Oc1ccc2c(c1)CCN(CCCSc1nc(-c3ccccc3)c(-c3ccccc3)[nH]1)CC2 [Example 22, 3-{3-[(4,5-diphenyl-1H-imidazol-2-yl)thio]propyl}-2,3,4,5-tetrahydro-1H-3-benzazepin-7-yl methanesulfonate]	0.316 to 10 nM
Cn1c(SCCCN2CCc3ccc(S(=O)(=O)N4CCOCC4)cc3CC2)nnc1-c1ccc2ncccc2c1 [Example 51, 3-(3-{[4-methyl-5-(6-quinolinyl)-4H-1,2,4-triazol-3-yl]thio}propyl)-7-(4-morpholinylsulfonyl)-2,3,4,5-tetrahydro-1H-3-benzazepine]	0.316 to 10 nM
Cn1c(SCCCN2CCc3ccc(S(=O)(=O)c4ccccc4)cc3CC2)nnc1-c1ccc(F)cc1F [Example 67, 3-(3-{[5-(2,4-difluorophenyl)-4-methyl-4H-1,2,4-triazol-3-yl]thio}propyl)-7-(phenylsulfonyl)-2,3,4,5-tetrahydro-1H-3-benzazepine]	0.316 to 10 nM
Cn1c(SCCCN2CCc3ccc(S(=O)(=O)N4CCOCC4)cc3CC2)nnc1-c1ccc(F)cc1F [Example 70, 3-(3-{[5-(2,4-difluorophenyl)-4-methyl-4H-1,2,4-triazol-3-yl]thio}propyl)-7-(4-morpholinylsulfonyl)-2,3,4,5-tetrahydro-1H-3-benzazepine]	0.316 to 10 nM
Cn1c(SCCCN2CCc3ccc(S(C)(=O)=O)cc3CC2)nnc1-c1cc2ccccc2[nH]1 [Example 72, 3-(3-{[5-(1H-indol-2-yl)-4-methyl-4H-1,2,4-triazol-3-yl]thio}propyl)-7-(methylsulfonyl)-2,3,4,5-tetrahydro-1H-3-benzazepine]	0.316 to 10 nM
Cn1c(SCCCN2CCc3ccc(S(C)(=O)=O)cc3CC2)nnc1-c1ccc2c(ccn2C)c1 [Example 74, 3-(3-{[4-methyl-5-(1-methyl-1H-indol-5-yl)-4H-1,2,4-triazol-3-yl]thio}propyl)-7-(methylsulfonyl)-2,3,4,5-tetrahydro-1H-3-benzazepine]	0.316 to 10 nM
CCS(=O)(=O)c1ccc2c(c1)CCN(CCCSc1nnc(-c3cc4ccccc4s3)n1C)CC2 [Example 91, 3-(3-{[5-(1-benzothien-2-yl)-4-methyl-4H-1,2,4-triazol-3-yl]thio}propyl)-7-(ethylsulfonyl)-2,3,4,5-tetrahydro-1H-3-benzazepine]	0.316 to 10 nM
CCS(=O)(=O)c1ccc2c(c1)CCN(CCCSc1nnc(-c3cc4ccccc4[nH]3)n1C)CC2 [Example 93, 7-(ethylsulfonyl)-3-(3-{[5-(1H-indol-2-yl)-4-methyl-4H-1,2,4-triazol-3-yl]thio}propyl)-2,3,4,5-tetrahydro-1H-3-benzazepine]	0.316 to 10 nM
CCS(=O)(=O)c1ccc2c(c1)CCN(CCCSc1nnc(-c3cc4ccccc4o3)n1C)CC2 [Example 95, 3-(3-{[5-(1-benzofuran-2-yl)-4-methyl-4H-1,2,4-triazol-3-yl]thio}propyl)-7-(ethylsulfonyl)-2,3,4,5-tetrahydro-1H-3-benzazepine]	0.316 to 10 nM
CCS(=O)(=O)c1ccc2c(c1)CCN(CCCSc1nnc(-c3cccc4occc34)n1C)CC2 [Example 96, 3-(3-{[5-(1-benzofuran-4-yl)-4-methyl-4H-1,2,4-triazol-3-yl]thio}propyl)-7-(ethylsulfonyl)-2,3,4,5-tetrahydro-1H-3-benzazepine]	0.316 to 10 nM
CCS(=O)(=O)c1ccc2c(c1)CCN(CCCSc1nnc(-c3cc4ccccc4n3C)n1C)CC2 [Example 99, 7-(ethylsulfonyl)-3-(3-{[4-methyl-5-(1-methyl-1H-indol-2-yl)-4H-1,2,4-triazol-3-yl]thio}propyl)-2,3,4,5-tetrahydro-1H-3-benzazepine]	0.316 to 10 nM
CCS(=O)(=O)c1ccc2c(c1)CCN(CCCSc1nnc(-c3cccc4ccoc34)n1C)CC2 [Example 100, 3-(3-{[5-(1-benzofuran-7-yl)-4-methyl-4H-1,2,4-triazol-3-yl]thio}propyl)-7-(ethylsulfonyl)-2,3,4,5-tetrahydro-1H-3-benzazepine]	0.316 to 10 nM
CCn1c(SCCCN2CCc3ccc(-c4ncc(C)o4)cc3CC2)nnc1-c1ccc2ncccc2c1 [Example 169, 3-(3-{[4-ethyl-5-(6-quinolinyl)-4H-1,2,4-triazol-3-yl]thio}propyl)-7-(5-methyl-1,3-oxazol-2-yl)-2,3,4,5-tetrahydro-1H-3-benzazepine]	0.316 to 10 nM

The remaining lines, values ahead:

Ki	Compound
0.316 to 10 nM	Cc1cnc(-c2ccc3c(c2)CCN(CCCSc2nnc(-c4ccc5ncccc5c4)n2C)CC3)o1 [Example 61, 7-(5-methyl-1,3-oxazol-2-yl)-3-(3-{[4-methyl-5-(6-quinolinyl)-4H-1,2,4-triazol-3-yl]thio}propyl)-2,3,4,5-tetrahydro-1H-3-benzazepine]
0.316 to 10 nM	Cc1cc(-c2ccc3c(c2)CCN(CCCSc2nnc(-c4ccc5ncccc5c4)n2C)CC3)no1 [Example 63, 7-(5-methyl-3-isoxazolyl)-3-(3-{[4-methyl-5-(6-quinolinyl)-4H-1,2,4-triazol-3-yl]thio}propyl)-2,3,4,5-tetrahydro-1H-3-benzazepine]
0.316 to 10 nM	Cc1cc(-c2ccc3c(c2)CCN(CCCSc2nnc(-c4ccc5ncccc5c4)n2C)CC3)on1 [Example 126, 7-(3-methyl-5-isoxazolyl)-3-(3-{[4-methyl-5-(6-quinolinyl)-4H-1,2,4-triazol-3-yl]thio}propyl)-2,3,4,5-tetrahydro-1H-3-benzazepine]
0.316 to 10 nM	Cc1cc(-c2ccc3c(c2)CCN(CCCSc2nnc(-c4ccc(F)cc4F)n2C)CC3)no1 [Example 131, 3-(3-{[5-(2,4-difluorophenyl)-4-methyl-4H-1,2,4-triazol-3-yl]thio}propyl)-7-(5-methyl-3-isoxazolyl)-2,3,4,5-tetrahydro-1H-3-benzazepine]
0.316 to 10 nM	Cc1cc(-c2ccc3c(c2)CCN(CCCSc2nnc(-c4ccc(F)c5ncccc45)n2C)CC3)no1 [Example 135, 3-(3-{[5-(8-fluoro-5-quinolinyl)-4-methyl-4H-1,2,4-triazol-3-yl]thio}propyl)-7-(5-methyl-3-isoxazolyl)-2,3,4,5-tetrahydro-1H-3-benzazepine]
0.316 to 10 nM	Cc1ccc2c(-c3nnc(SCCCN4CCc5ccc(-c6cc(C)on6)cc5CC4)n3C)ccc(F)c2n1 [Example 137, 3-(3-{[5-(8-fluoro-2-methyl-5-quinolinyl)-4-methyl-4H-1,2,4-triazol-3-yl]thio}propyl)-7-(5-methyl-3-isoxazolyl)-2,3,4,5-tetrahydro-1H-3-benzazepine]
0.316 to 10 nM	Cc1cc(-c2ccc3c(c2)CCN(CCCSc2nnc(-c4ccc5cnccc5n4)n2C)CC3)no1 [Example 146, 7-(5-methyl-3-isoxazolyl)-3-(3-{[4-methyl-5-(1,6-naphthyridin-2-yl)-4H-1,2,4-triazol-3-yl]thio}propyl)-2,3,4,5-tetrahydro-1H-3-benzazepine]
0.316 to 10 nM	Cc1ccc2cc(-c3nnc(SCCCN4CCc5ccc(-c6ncc(C)o6)cc5CC4)n3C)ccc2n1 [Example 168, 3-(3-{[4-methyl-5-(2-methyl-6-quinolinyl)-4H-1,2,4-triazol-3-yl]thio}propyl)-7-(5-methyl-1,3-oxazol-2-yl)-2,3,4,5-tetrahydro-1H-3-benzazepine]
0.316 to 10 nM	Cc1ccc2cc(-c3nnc(CCCCN4CCc5ccc(-c6cc(C)on6)cc5CC4)n3C)ccc2n1 [Example 173, 7-(5-Methyl-3-isoxazolyl)-3-{4-[4-methyl-5-(2-methyl-6-quinolinyl)-4H-1,2,4-triazol-3-yl]butyl}-2,3,4,5-tetrahydro-1H-3-benzazepine hydrochloride]
